# Results as given in US20060116390A1, “Hepatitis c virus inhibitors” (priority 2003, published 2006).
# Like-named read-outs stand apart in the source and are kept apart here.
# Test system: HCV proteins in Rep5.1 cells (replicon cell line)
# Experiment: Inhibitory activity of HCV: cell-based ELISA in replicon cell line Rep5.1 (decrease of HCV proteins)
# Design: species or system hepatitis C virus
# Conditions: Rep5.1 cells, 72 hours with drug
# In short: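 Rep5.1 replicon cells (5000/well, DMEM-10 with 500 μg/ml G418) were given serially diluted drug 4 h after seeding. After 72 h, cells were fixed in methanol/acetone and HCV proteins detected by cell-based ELISA using replicon-specific patient plasma antibodies. IC50 is the concentration giving 50% protein decrease versus the no-drug control.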
# [1] = Hepatitis C virus, 72 h, concentration at which 50% of HCV proteins was decreased, Table 2, read-out: IC50
# [2] = Hepatitis C virus, 72 h, decrease of HCV proteins measured by HCV antibody, Table 1, read-out: Level (IC50 values classified)
SMILES,IC50 [1] [µM],IC50 [2] [µM],"IC50 (concentration at which 50% of HCV proteins was decreased, Table 2, read-out: IC50) [µM]"
"CC1=C(C(=O)OCCS(=O)(=O)c2ccc(C)cc2)CNC(=S)N1 [Compound 201, 6-methyl-2-thioxo-1,2,3,4-tetrahydro-pyrimidine-5-carboxylic acid 2-(toluene-4-sulfonyl)-ethyl ester]",13,10 to 20,–
"CC1=C(C(=O)OCc2nc3ccccc3o2)CNC(=S)N1 [Compound 238, 6-methyl-2-thioxo-1,2,3,4-tetrahydro-pyrimidine-5-carboxylic acid benzoxazol-2-ylmethyl ester]",3,1 to 10,–
"CC1=C(C(=O)OCCCc2ccsc2)C(CF)NC(=S)N1 (stereo not drawn) [53′, 4-fluoromethyl-6-methyl-2-thioxo-1,2,3,4-tetrahydro-pyrimidine-5-carboxylic acid 3-thiophen-3-yl-propyl ester]",18,10 to 20,–
"O=C(OCc1ccccc1)C1=C(C(F)(F)F)NC(=S)NC1 [Compound 146, 2-thioxo-6-trifluoromethyl-1,2,3,4-tetrahydro-pyrimidine-5-carboxylic acid benzyl ester]",> 100,> 20,–
"CC1=C(C(=O)OCCc2ccsc2)C2(CCC2)NC(=S)N1 [7′, 8-methyl-6-thioxo-5,7-diaza-spiro[3,5]non-8-en-9-carboxylic acid 2-thiophen-3-yl-ethyl ester]",8,1 to 10,–
"CC1=C(C(=O)OCCc2cccc(Cl)c2)C(COC(=O)OCCOC(=O)c2ccccc2)NC(=S)N1 (stereo not drawn) [76″, 4-(2-benzoyloxy-ethoxycarbonyloxymethyl)-6-methyl-2-thioxo-1,2,3,4-tetrahydro-pyrimidine-5-carboxylic acid 2-(3-chloro-phenyl)-ethyl ester]",0.9,< 1,–
"CCCCCCOC(=O)C1=C(C)NC(=S)NC1 [Compound 30, 6-methyl-2-thioxo-1,2,3,4-tetrahydro-pyrimidine-5-carboxylic acid hexyl ester]",0.1,< 1,–
"CC1=C(C(=O)SCc2ccccc2)CNC(=S)N1 [Compound 85, 6-methyl-2-thioxo-1,2,3,4-tetrahydro-pyrimidine-5-carbothioic acid S-benzyl ester]",0.1,< 1,–
"CC1=C(C(=O)SCc2ccco2)C(CF)NC(=S)N1 (stereo not drawn) [39′, 4-fluoromethyl-6-methyl-2-thioxo-1,2,3,4-tetrahydro-pyrimidine-5-carbothioic acid S-furan-2-ylmethyl ester]",2.6,1 to 10,–
"CCOc1ccc(COC(=O)C2=C(C)NC(=S)NC2)cc1 [Compound 71, 6-methyl-2-thioxo-1,2,3,4-tetrahydro-pyrimidine-5-carboxylic acid 4-ethoxy-benzyl ester]",2.5,1 to 10,–
"CCOC(=O)C1NC(=S)NC(C)=C1C(=O)OCCc1ccsc1 (stereo not drawn) [6′, 6-methyl-2-thioxo-1,2,3,4-tetrahydro-pyrimidine-4,5-dicarboxylic acid 4-ethyl ester 5-(2-thiophen-3-yl-ethyl) ester]",> 100,> 20,–
"CC1=C(C(=O)OCc2cccc(C)c2)CNC(=S)N1 [Compound 90, 6-methyl-2-thioxo-1,2,3,4-tetrahydro-pyrimidine-5-carboxylic acid 3-methyl-benzyl ester]",0.4,< 1,–
"CC1=C(C(=O)OCCc2ccccc2)C(CF)NC(=S)N1 (stereo not drawn) [33′, 4-fluoromethyl-6-methyl-2-thioxo-1,2,3,4-tetrahydro-pyrimidine-5-carboxylic acid phenethyl ester]",1,< 1,–
"CC1=C(C(=O)OCCc2ccccc2F)CNC(=S)N1 [Compound 116, 6-methyl-2-thioxo-1,2,3,4-tetrahydro-pyrimidine-5-carboxylic acid 2-(2-fluoro-phenyl)-ethyl ester]",0.5,< 1,–
"CC1=C(C(=O)OCCCc2ccsc2)CNC(=S)N1 [Compound 243, 6-methyl-2-thioxo-1,2,3,4-tetrahydro-pyrimidine-5-carboxylic acid 3-thiophen-3-yl-propyl ester]",< 0.4,< 1,–
"CC1=C(C(=O)OCc2ccc([N+](=O)[O-])c(C)c2)CNC(=S)N1 [Compound 135, 6-methyl-2-thioxo-1,2,3,4-tetrahydro-pyrimidine-5-carboxylic acid 3-methyl-4-nitro-benzyl ester]",0.9,< 1,–
"CC1=C(C(=O)OCCc2cccc(Cl)c2)C(COC(=O)OCC2COC(=O)O2)NC(=S)N1 (stereo not drawn) [88″, 6-methyl-4-(2-oxo-[1,3]dioxolan-4-ylmethoxycarbonyloxymethyl)-2-thioxo-1,2,3,4-tetrahydro-pyrimidine-5-carboxylic acid 2-(3-chloro-phenyl)-ethyl ester]",0.9,< 1,–
"CC1=C(C(=O)OCCc2ccc(OCc3ccccc3)cc2)C(CO)NC(=S)N1 (stereo not drawn) [27″, 4-hydroxymethyl-6-methyl-2-thioxo-1,2,3,4-tetrahydro-pyrimidine-5-carboxylic acid 2-(4-benzyloxy-phenyl)-ethyl ester]",0.4,< 1,–
"COc1ccc(OC)c(COC(=O)C2=C(C)NC(=S)NC2)c1 [Compound 174, 6-methyl-2-thioxo-1,2,3,4-tetrahydro-pyrimidine-5-carboxylic acid 2,5-dimethoxy-benzyl ester]",7,1 to 10,–
"CC1=C(C(=O)OCCc2ccsc2)CNC(=S)N1 [Compound 208, 6-methyl-2-thioxo-1,2,3,4-tetrahydro-pyrimidine-5-carboxylic acid 2-thiophen-3-yl-ethyl ester]",< 0.4,< 1,–
"CC1=C(C(=O)OCCc2ccc(F)cc2)CNC(=S)N1 [Compound 93, 6-methyl-2-thioxo-1,2,3,4-tetrahydro-pyrimidine-5-carboxylic acid 2-(4-fluoro-phenyl)-ethyl ester]",–,–,0.7
"CC1=C(C(=O)OC(C)Cc2ccsc2Br)C(CF)NC(=S)N1 (stereo not drawn) [27′, 4-fluoromethyl-6-methyl-2-thioxo-1,2,3,4-tetrahydro-pyrimidine-5-carboxylic acid 2-(2-bromo-thiophen-3-yl)-1-methyl-ethyl ester]",< 0.4,< 1,–
"CC1=C(C(=O)OCCc2ccsc2)[C@H](CF)NC(=S)N1 [24′, (R)-4-fluoromethyl-6-methyl-2-thioxo-1,2,3,4-tetrahydro-pyrimidine-5-carboxylic acid 2-thiophen-3-yl-ethyl ester]",4.4,1 to 10,–
"CC1=C(C(=O)OCCc2cccc([N+](=O)[O-])c2)C(COC(=O)c2ccccc2)NC(=S)N1 (stereo not drawn) [89″, 4-benzoyloxymethyl-6-methyl-2-thioxo-1,2,3,4-tetrahydro-pyrimidine-5-carboxylic acid 2-(3-nitro-phenyl)-ethyl ester]",6.8,1 to 10,–
"CCc1ccc(CCOC(=O)C2=C(C)NC(=S)NC2)o1 [22′, 6-methyl-2-thioxo-1,2,3,4-tetrahydro-pyrimidine-5-carboxylic acid 2-(5-ethyl-furan-2-yl)-ethyl ester]",< 0.4,< 1,–
"CC1=C(C(=O)OCc2ccc(C)cc2)CNC(=S)N1 [Compound 89, 6-methyl-2-thioxo-1,2,3,4-tetrahydro-pyrimidine-5-carboxylic acid 4-methyl-benzyl ester]",0.8,< 1,–
